Entries after “also recorded” stand apart in the source; their conditions may differ. Read-outs that look alike come from different tables or passages of the source.
Legend:
[1] = tested on: breast cancer cells (13762NF) tumor; test: Anticancer effect in breast tumor-bearing rat model; type: in vivo; settings: for tumor volume: single dose (Pt 10 mg/kg or chondroitin only)
Protocol: Female Fischer 344 rats (125-175 g) were inoculated with breast cancer cells (13762NF, 10^6 cells/rat, s.c. in the hind leg). After 15-20 days and a tumor volume of […], the breast tumor-bearing rats were administered either the platinum-chondroitin (Platinum-polysaccharide) conjugate (PC) or chondroitin alone at doses of 10 mg Pt/kg (platinum (IV)-polysaccharide) or 45 mg/kg (chondroitin). Tumor volumes and body weight were recorded daily for sixty days. Tumor volumes were measured as [length (l)×width (w)×thickness (h)]/2. Loss of body weight of 15% is considered a chemical-induced toxic effect. […] After treatment with platinum-polysaccharide conjugate, tumor tissues were dissected and embedded in […]. The tumor tissue was fixed in paraffin, and stained with hematoxylin and eosin for histological examinations.

[2] = In vitro determination of relaxivity (T1, 7.0 T); type: physicochemical; settings: in water, Gd 0.01-0.08 mM
Protocol: Solutions of Gd-EDTA-chitosan and Gd-DTPA were prepared in water at Gd concentrations of 0.01 mM, 0.02 mM, 0.04 mM and 0.08 mM. Spin lattice (T1) relaxivity was measured at 7.0 T. R1 in mM^−1s^−1 was obtained from linear last-squares determination of the slopes of 1/T1 vs [Gd] plot. R1 was calculated as 3.61 and […] for Gd-DTPA and Gd-EDTA-chitosan, respectively.

[3] = tested on: platinum-resistant ovarian cancer cell line 2008-c13; test: TUNEL assay of apoptosis; type: cell-based, human; settings: 48 hours, compared at each dose, P<0.05
From the text: DNA fragmentation typical of apoptosis was further determined by the TUNEL assay in three independent experiments.

2008.C13 cells = test: Flow cytometric cell-cycle analysis (S-phase arrest); type: cell-based, human; settings: 48 hours
[4] = tested on: PARP / caspase-3 cleavage in 2008-c13 cells; test: Western blot of cleaved PARP and cleaved caspase-3; type: cell-based, human; settings: 48 hours; for cleaved PARP expression: 2008-c13 cells; for cleaved caspase-3 expression: 2008.C13 cells
Protocol: The effect of the platinum-polysaccharide conjugate of Example 1 on tumor cells was analyzed by treating 2008-c13 […] cells with the conjugate, then analyzing the effects on cellular proteins through a Western blot (FIG. 11).
To determine whether apoptosis is induced through a caspase-3-dependent pathway followed by the cleavage of PARP, levels of cleaved caspase-3 and PARP, which form after caspase-3 activation, were determined by Western blot analysis.

[5] = tested on: platinum-resistant ovarian cancer cell line 2008-c13; test: Flow cytometry (propidium iodide) of apoptosis / sub-G1 fraction; type: cell-based, human; settings: for sub-G1 fraction (hypodiploid cells): 48 hours and 72 hours of drug exposure, same doses
Protocol: To determine the effectiveness of platinum-polysaccharide conjugate (PC) against platinum-resistant ovarian cancer cells, 2008-c13 cells ([…]) were treated with platinum-polysaccharide conjugate (PC). The cells were trypsinized and centrifuged at 2500 rpm for 5 min. After being washed with 1×PBS two times, cells were fixed with 70% ethanol overnight, washed twice with 1×PBS, and resuspended in 1 mL of propidium iodide (PI) solution (1×10^6 cells/mL). RNase (20 μg/mL) solution was added followed by 1 mL of propydium iodide solution (PI, 50 μg/mL in PBS). Samples were incubated at 37° C. for 15 min, and PI fluorescence was analyzed using a EPIS XL analyzer.
This effect was tested by flow cytometry in the 2008.C13 cell line after 48 hours and 72 hours of drug exposure.

[6] = tested on: p21 and cyclin A in 2008.C13 cells; test: p21 and cyclin A expression (Northern/Western blot); type: cell-based, human; settings: 48 hours of drug exposure
Protocol: To elucidate the mechanism underlying S-phase arrest caused by CDDP and PC in 2008.C13 cells, the expression of p21 and cyclin A, which are important for cell-cycle regulation in the S phase, was examined in 2008.C13 cells after 48 hours of drug exposure.

[7] = tested on: platinum-resistant ovarian cancer cells (2008-c13)
Protocol: All cells were cultured at 37° C. in a humidified atmosphere containing 5% CO2 in RPMI 1640 medium supplemented with 10% fetal bovine serum and glutamine (2 mM). 2008 or 2008.C13 cells were seeded into 96-well plates (4,000 cells/well) and maintained in RPMI 1640 medium for 24 hours. […] Controls were treated with DMSO or PBS. After cells were treated, their growth and viability were determined by incubating the cells for 1 to 2 hours at 37° C. with 20 μL of tetrazolium substrate. Absorbence was measured at 450 nm using a 96-well Synergy HT-microplate reader (Biotek, Winooski, Vt.) The rate of cell growth inhibition was expressed as a percentage as follows: […]. The experiments were repeated separately three times. Methylene tetrazolium (MTT) dye assay determined the amount of viable cells. Cellular protein content was determined by Lowry assay. The drug concentration that inhibits 50% of cell growth (IC-50) was then determined Data are expressed as the percentage differences compared with controls (OD of cells after treatment/OD of cells without treatment).

chondroitin [reference compound] showed a tumor volume ([1]; 24 hours) of 5.2591 cm^3 and a tumor volume ([1]; 94 hrs) of 14.3622 cm^3.

With `O=C([O-])CN(CCN(CC(=O)[O-])CC(=O)O)CCN(CC(=O)[O-])CC(=O)O.[Gd+3]` [Gd-DTPA, reference compound] the R1 (spin lattice T1 relaxivity) [2] was 3.61 mM⁻¹ s⁻¹.

With `N.N.[Cl][Pt][Cl]` [CDDP, cis-diamminedichloroplatinum (II), reference compound] the “apoptotic cells by TUNEL” value [3] was “dose-dependent increase”, the “maximal S-phase arrest” value (2008.C13 cells; 20 μg/mL) was 84.8% and the “cleaved PARP expression” value [4] was “increased from 2.5 μg/mL to 20 μg/mL”. For the same compound, the “cleaved caspase-3 expression” value [4] was “expressed in a pattern similar to that of PARP”, the “sub-G1 fraction (hypodiploid cells)” value [5] was “dose-dependent increase” and the “cyclin A expression” value [6] was “Neither p21 nor cyclin A expression was related to the extent of S-phase arrest”. For the same compound, the p21 expression [6] was “Neither p21 nor cyclin A expression was related to the extent of S-phase arrest”.

For Gd-EDTA-chitosan, the “R1 (spin lattice T1 relaxivity)” value [2] was 9.59 mM⁻¹ s⁻¹.

With “Cis-1,2-DACH-dichloro-Pt (IV)-aspartate-chondroitin [PC]” the “apoptotic cells by TUNEL” value [3] was “many more cells experiencing apoptosis; also recorded: much higher levels of apoptosis”, the S-phase arrest (2008.C13 cells; 2.5 μg/mL) was 90.3% and the S-phase arrest (2008.C13 cells; 5 μg/mL) was 90.1%. The “cleaved PARP expression” value [4] was “significantly increased; also recorded: cleaved PARP expression induced by high-dose (20 μg/mL) PC appeared to be lower than that induced by low-dose PC”, the “cleaved caspase-3 expression” value [4] was “comparable to that in the CDDP-treated group, except for the lower expression seen at 5 μg/mL” and the “effect against breast tumor growth (in words)” value ([1]; 10 mg Pt/kg) was “effective in vivo against breast tumor growth”. The tumor volume ([1]; 24 hours) was 5.2661 cm^3, the “tumor necrosis (H & E histology)” value ([1]; 94 hrs post-administration) was “Extensive necrosis” and the tumor volume ([1]; 94 hrs) was 0.8782 cm^3. The “apoptotic effect by flow cytometry” value ([5]; 2.5 and 5 μg/mL, compared to cisplatin) was “significantly enhanced the apoptotic effect”, the “sub-G1 fraction (hypodiploid cells)” value [5] was “more pronounced increase in the sub-G1 fraction; also recorded: substantially more sub-G1 cells than did CDDP” and the “cyclin A expression” value [6] was “up-regulated after high-dose PC treatment and was maintained at a low level after low-dose PC treatment”. For the same compound, the p21 expression [6] was “up-regulated with maximal S-phase arrest after low-dose PC treatment, but not after high doses; also recorded: increased p21 expression”, the “enhancement of tumor killing compared with cisplatin” value ([7]; 2.5 μg/mL, 48 hours) was 5.9 times and the “enhancement of tumor killing compared with cisplatin” value ([7]; 2.5 μg/mL, 72 hours) was 9.3 times. The “enhancement of tumor killing compared with cisplatin” value ([7]; 5 μg/mL, 48 hours) was 4.6 times, the “enhancement of tumor killing compared with cisplatin” value ([7]; 5 μg/mL, 72 hours) was 1.5 times and the “cell growth inhibition (in words)” value ([7]; low doses) was “significantly inhibit cell growth”.
